Results published in ChEMBL document CHEMBL4219190, “Studies on synthesis of novel pyrido[2,3-d]pyrimidine derivatives, evaluation of their antimicrobial activity and molecular docking” (Bioorg Med Chem Lett, 2018).
Converted amounts (≈) assume the structure as drawn. Values belong to the molecule of their own block, whether it stands above or below them. The source made the active and inactive calls. The calls are words filed in the database; no cut-off is given here.

Experiments:
[1] = system: Bacillus subtilis; experiment: Antibacterial activity against Bacillus subtilis MTCC 121 after 24 hrs by well diffusion method; format: functional
[2] = system: Staphylococcus aureus; experiment: Antibacterial activity against Staphylococcus aureus MTCC 96 after 24 hrs by well diffusion method; format: functional
[3] = system: Staphylococcus aureus; experiment: Antibacterial activity against Staphylococcus aureus MLS16 MTCC 2940 after 24 hrs by well diffusion method; format: functional
[4] = system: Micrococcus luteus; experiment: Antibacterial activity against Micrococcus luteus MTCC 2470 after 24 hrs by well diffusion method; format: functional
[5] = system: Raoultella planticola; experiment: Antibacterial activity against Klebsiella planticola MTCC 530 after 24 hrs by well diffusion method; format: functional
[6] = system: Escherichia coli; experiment: Antibacterial activity against Escherichia coli MTCC 739 after 24 hrs by well diffusion method; format: functional
[7] = system: Pseudomonas aeruginosa; experiment: Antibacterial activity against Pseudomonas aeruginosa MTCC 2453 after 24 hrs by well diffusion method; format: functional
[8] = system: Candida albicans; experiment: Antifungal activity against Candida albicans MTCC 183 after 24 hrs by well diffusion method; format: functional; settings: MTCC 183, 24 h
[9] = system: Candida albicans; experiment: Antifungal activity against Candida albicans MTCC 227 after 24 hrs by well diffusion method; format: functional; settings: MTCC 227, 24 h
[10] = system: Candida albicans; experiment: Antifungal activity against Candida albicans MTCC 854 after 24 hrs by well diffusion method; format: functional; settings: MTCC 854, 24 h
[11] = system: Candida albicans; experiment: Antifungal activity against Candida albicans MTCC 1637 after 24 hrs by well diffusion method; format: functional; settings: MTCC 1637, 24 h
[12] = system: Candida albicans; experiment: Antifungal activity against Candida albicans MTCC 3018 after 24 hrs by well diffusion method; format: functional; settings: MTCC 3018, 24 h
[13] = system: Candida albicans; experiment: Antifungal activity against Candida albicans MTCC 3017 after 24 hrs by well diffusion method; format: functional; settings: MTCC 3017, 24 h
[14] = system: Candida albicans; experiment: Antifungal activity against Candida albicans MTCC 3958 after 24 hrs by well diffusion method; format: functional; settings: MTCC 3958, 24 h
[15] = system: Candida albicans; experiment: Antifungal activity against Candida albicans MTCC 4748 after 24 hrs by well diffusion method; format: functional; settings: MTCC 4748, 24 h
[16] = system: Candida albicans; experiment: Antifungal activity against Candida albicans MTCC 7315 after 24 hrs by well diffusion method; format: functional; settings: MTCC 7315, 24 h
[17] = system: Candida parapsilosis; experiment: Antifungal activity against Candida parapsilosis MTCC 1744 after 24 hrs by well diffusion method; format: functional; settings: MTCC 1744, 24 h
[18] = system: [Candida] aaseri; experiment: Antifungal activity against Candida aaseri MTCC 1962 after 24 hrs by well diffusion method; format: functional; settings: Yamadazyma aaseri, MTCC 1962, 24 h
[19] = system: Nakaseomyces glabratus; experiment: Antifungal activity against Candida glabrata MTCC 3019 after 24 hrs by well diffusion method; format: functional; settings: MTCC 3019, 24 h
[20] = system: Pichia kudriavzevii; experiment: Antifungal activity against Candida krusei MTCC 3020 after 24 hrs by well diffusion method; format: functional
[21] = system: Pichia sporocuriosa; experiment: Antifungal activity against Issatchenkia hanoiensis MTCC 4755 after 24 hrs by well diffusion method; format: functional; settings: MTCC 4755, 24 h
[22] = system: Candida albicans; experiment: Fungicidal activity against Candida albicans MTCC 183 incubated for 24 hrs followed by transfer of microbial suspension to Sabouraud dextrose agar plates and measured after 24 hrs post transfer; format: functional; settings: MTCC 183, 24 h
[23] = system: Candida albicans; experiment: Fungicidal activity against Candida albicans MTCC 227 incubated for 24 hrs followed by transfer of microbial suspension to Sabouraud dextrose agar plates and measured after 24 hrs post transfer; format: functional; settings: MTCC 227, 24 h
[24] = system: Candida albicans; experiment: Fungicidal activity against Candida albicans MTCC 854 incubated for 24 hrs followed by transfer of microbial suspension to Sabouraud dextrose agar plates and measured after 24 hrs post transfer; format: functional; settings: MTCC 854, 24 h
[25] = system: Candida albicans; experiment: Fungicidal activity against Candida albicans MTCC 1637 incubated for 24 hrs followed by transfer of microbial suspension to Sabouraud dextrose agar plates and measured after 24 hrs post transfer; format: functional; settings: MTCC 1637, 24 h
[26] = system: Candida albicans; experiment: Fungicidal activity against Candida albicans MTCC 3017 incubated for 24 hrs followed by transfer of microbial suspension to Sabouraud dextrose agar plates and measured after 24 hrs post transfer; format: functional; settings: MTCC 3017, 24 h
[27] = system: Candida albicans; experiment: Fungicidal activity against Candida albicans MTCC 3018 incubated for 24 hrs followed by transfer of microbial suspension to Sabouraud dextrose agar plates and measured after 24 hrs post transfer; format: functional; settings: MTCC 3018, 24 h
[28] = system: Candida albicans; experiment: Fungicidal activity against Candida albicans MTCC 3958 incubated for 24 hrs followed by transfer of microbial suspension to Sabouraud dextrose agar plates and measured after 24 hrs post transfer; format: functional; settings: MTCC 3958, 24 h
[29] = system: Candida albicans; experiment: Fungicidal activity against Candida albicans MTCC 4748 incubated for 24 hrs followed by transfer of microbial suspension to Sabouraud dextrose agar plates and measured after 24 hrs post transfer; format: functional; settings: MTCC 4748, 24 h
[30] = system: Candida albicans; experiment: Fungicidal activity against Candida albicans MTCC 7315 incubated for 24 hrs followed by transfer of microbial suspension to Sabouraud dextrose agar plates and measured after 24 hrs post transfer; format: functional; settings: MTCC 7315, 24 h
[31] = system: Candida parapsilosis; experiment: Fungicidal activity against Candida parapsilosis MTCC 1744 incubated for 24 hrs followed by transfer of microbial suspension to Sabouraud dextrose agar plates and measured after 24 hrs post transfer; format: functional; settings: Lodderomyces parapsilosis, MTCC 1744, 24 h
[32] = system: [Candida] aaseri; experiment: Fungicidal activity against Candida aaseri MTCC 1962 incubated for 24 hrs followed by transfer of microbial suspension to Sabouraud dextrose agar plates and measured after 24 hrs post transfer; format: functional; settings: Yamadazyma aaseri, MTCC 1962, 24 h
[33] = system: Nakaseomyces glabratus; experiment: Fungicidal activity against Candida glabrata MTCC 3019 incubated for 24 hrs followed by transfer of microbial suspension to Sabouraud dextrose agar plates and measured after 24 hrs post transfer; format: functional; settings: MTCC 3019, 24 h
[34] = system: Pichia kudriavzevii; experiment: Fungicidal activity against Candida krusei MTCC 3020 incubated for 24 hrs followed by transfer of microbial suspension to Sabouraud dextrose agar plates and measured after 24 hrs post transfer; format: functional
[35] = system: Pichia sporocuriosa; experiment: Fungicidal activity against Issatchenkia hanoiensis MTCC 4755 incubated for 24 hrs followed by transfer of microbial suspension to Sabouraud dextrose agar plates and measured after 24 hrs post transfer; format: functional; settings: MTCC 4755, 24 h
[36] = system: Bacillus subtilis; experiment: Bactericidal activity against Bacillus subtilis MTCC 121 incubated for 24 hrs followed by transfer of microbial suspension to Mueller Hinton agar plates and measured after 24 hrs post transfer; format: functional
[37] = system: Staphylococcus aureus; experiment: Bactericidal activity against Staphylococcus aureus MTCC 96 incubated for 24 hrs followed by transfer of microbial suspension to Mueller Hinton agar plates and measured after 24 hrs post transfer; format: functional; settings: MTCC 96, 24 h
[38] = system: Staphylococcus aureus; experiment: Bactericidal activity against Staphylococcus aureus MLS16 MTCC 2940 incubated for 24 hrs followed by transfer of microbial suspension to Mueller Hinton agar plates and measured after 24 hrs post transfer; format: functional
[39] = system: Micrococcus luteus; experiment: Bactericidal activity against Micrococcus luteus MTCC 2470 incubated for 24 hrs followed by transfer of microbial suspension to Mueller Hinton agar plates and measured after 24 hrs post transfer; format: functional
[40] = system: Raoultella planticola; experiment: Bactericidal activity against Klebsiella planticola MTCC 530 incubated for 24 hrs followed by transfer of microbial suspension to Mueller Hinton agar plates and measured after 24 hrs post transfer; format: functional
[41] = system: Escherichia coli; experiment: Bactericidal activity against Escherichia coli MTCC 739 incubated for 24 hrs followed by transfer of microbial suspension to Mueller Hinton agar plates and measured after 24 hrs post transfer; format: functional
[42] = system: Pseudomonas aeruginosa; experiment: Bactericidal activity against Pseudomonas aeruginosa MTCC 2453 incubated for 24 hrs followed by transfer of microbial suspension to Mueller Hinton agar plates and measured after 24 hrs post transfer; format: functional
[43] = system: Bacillus subtilis; experiment: Antibiofilm activity against Bacillus subtilis MTCC 121 after 24 hrs by crystal violet staining-based assay; format: functional, organism-based
[44] = system: Staphylococcus aureus; experiment: Antibiofilm activity against Staphylococcus aureus MTCC 96 after 24 hrs by crystal violet staining-based assay; format: functional, organism-based; settings: Staphylococcus aureus, MTCC 96, 24 h; read-out: IC50
[45] = system: Staphylococcus aureus; experiment: Antibiofilm activity against Staphylococcus aureus MLS16 MTCC 2940 after 24 hrs by crystal violet staining-based assay; format: functional, organism-based
[46] = system: Pseudomonas aeruginosa; experiment: Antibiofilm activity against Pseudomonas aeruginosa MTCC 2453 after 24 hrs by crystal violet staining-based assay; format: functional, organism-based
[47] = system: Raoultella planticola; experiment: Antibiofilm activity against Klebsiella planticola MTCC 530 after 24 hrs by crystal violet staining-based assay; format: functional, organism-based

MIC [1]: inactive | MIC [2]: inactive | MIC [3]: inactive | MIC [4]: inactive | MIC [6]: inactive | MIC [7]: inactive
Structure (SMILES): COc1ccc(-c2nc(C(=O)NCCO)nc3nc(-c4ccccc4)cc(C(F)(F)F)c23)cc1
MIC [5]: inactive

MIC [1]: inactive | MIC [2]: inactive | MIC [3]: inactive | MIC [4]: inactive | MIC [6]: inactive | MIC [7]: inactive | MIC [8]: 7.8 µg/mL (≈ 17.4 µM) | MIC [9]: 15.6 µg/mL (≈ 34.8 µM) | MIC [10]: 7.8 µg/mL (≈ 17.4 µM) | MIC [11]: 7.8 µg/mL (≈ 17.4 µM) | MIC [12]: 31.2 µg/mL (≈ 69.6 µM) | MIC [13]: 7.8 µg/mL (≈ 17.4 µM) | MIC [14]: 31.2 µg/mL (≈ 69.6 µM) | MIC [15]: 62.5 µg/mL (≈ 139 µM) | MIC [16]: 15.6 µg/mL (≈ 34.8 µM) | MIC [17]: 15.6 µg/mL (≈ 34.8 µM) | MIC [18]: 7.8 µg/mL (≈ 17.4 µM) | MIC [19]: 31.2 µg/mL (≈ 69.6 µM) | MIC [20]: inactive | MIC [21]: 31.2 µg/mL (≈ 69.6 µM)
Structure (SMILES): O=C(c1nc(-c2ccccc2)c2c(C(F)(F)F)cc(-c3ccccc3)nc2n1)N1CCCC1
MIC [5]: inactive | MFC [22]: 15.6 µg/mL (≈ 34.8 µM) | MFC [23]: 31.2 µg/mL (≈ 69.6 µM) | MFC [24]: 15.6 µg/mL (≈ 34.8 µM) | MFC [25]: 15.6 µg/mL (≈ 34.8 µM) | MFC [26]: 15.6 µg/mL (≈ 34.8 µM) | MFC [27]: 62.5 µg/mL (≈ 139 µM) | MFC [28]: 62.5 µg/mL (≈ 139 µM) | MFC [29]: 62.5 µg/mL (≈ 139 µM) | MFC [30]: 31.2 µg/mL (≈ 69.6 µM) | MFC [31]: 15.6 µg/mL (≈ 34.8 µM) | MFC [32]: 15.6 µg/mL (≈ 34.8 µM) | MFC [33]: 31.2 µg/mL (≈ 69.6 µM) | MFC [34]: inactive | MFC [35]: 62.5 µg/mL (≈ 139 µM)

MIC [1]: inactive | MIC [2]: inactive | MIC [3]: inactive | MIC [4]: inactive | MIC [6]: inactive | MIC [7]: inactive
Structure (SMILES): CCCNC(=O)c1nc(-c2ccc(OC)cc2)c2c(C(F)(F)F)cc(-c3ccccc3)nc2n1
MIC [5]: inactive

MIC [1]: inactive | MIC ([2]; MTCC 96, 24 h): 7.8 µg/mL (≈ 15.4 µM) | MIC [3]: inactive | MIC [4]: inactive | MIC [6]: inactive | MIC [7]: inactive | IC50 [43]: Not Active | IC50 [44]: 2.7 µg/mL (≈ 5.33 µM) | IC50 [45]: Not Active | IC50 [46]: Not Active
Structure (SMILES): COc1ccc(-c2nc(C(=O)NC3CCCCC3)nc3nc(-c4ccccc4)cc(C(F)(F)F)c23)cc1
MBC [36]: inactive | MIC [5]: inactive | MBC [37]: 7.8 µg/mL (≈ 15.4 µM) | MBC [38]: inactive | MBC [39]: inactive | MBC [40]: inactive | MBC [41]: inactive | MBC [42]: inactive | IC50 [47]: Not Active

MIC [1]: inactive | MIC ([2]; MTCC 96, 24 h): 7.8 µg/mL (≈ 16.4 µM) | MIC [3]: inactive | MIC [4]: inactive | MIC [6]: inactive | MIC [7]: inactive | IC50 [43]: Not Active | IC50 [44]: 2.7 µg/mL (≈ 5.69 µM) | IC50 [45]: Not Active | IC50 [46]: Not Active
Structure (SMILES): O=C(NCc1ccco1)c1nc(-c2ccccc2)c2c(C(F)(F)F)cc(-c3ccccc3)nc2n1
MBC [36]: inactive | MIC ([5]; MTCC 530, 24 h): 15.6 µg/mL (≈ 32.9 µM) | MBC [37]: 15.6 µg/mL (≈ 32.9 µM) | MBC [38]: inactive | MBC [39]: inactive | MBC ([40]; MTCC 530, 24 h): 31.2 µg/mL (≈ 65.8 µM) | MBC [41]: inactive | MBC [42]: inactive | IC50 ([47]; Klebsiella planticola, MTCC 530, 24 h, read-out: IC50): 5.4 µg/mL (≈ 11.4 µM)
